Measurements as given in US20130231316A1, “Drug Combination Comprising a Selective Serotonin Reuptake Inhibitor and a Glucocorticoid Receptor Antagonist for the Treatment of Depression” (priority 2004, published 2013).
Read-outs that look alike come from different tables or passages of the source.

Test system: 5-HT1A autoreceptor
Settings: fluoxetine 10 mg/kg i.p. daily, Org 34850 15 mg/kg i.p. twice daily or vehicle, fall following i.p. injection of fluoxetine 10 mg/kg, prefrontal cortex
Method: In experimental animals this desensitization can be measured using microdialysis in the prefrontal cortex and a combination of local administration of an SSRI (fluoxetine) in the region of the probe to block local uptake and systemic injection which affects all uptake sites and leads to 5-HT1A autoreceptor activation.
Studies were performed on Hooded Lister rats housed in groups of three with food and water available ad libitum. Animals were kept in controlled environmental conditions: temperature (20° C.) and humidity (30-50%) on a 12 h light/dark cycle (lights on 07.00 a.m.). Each cage received the same treatment and animals from a single cage studied on the same day to avoid social isolation. Animals underwent two treatments; vehicle or GR antagonist (15 mg/kg Org 34850, intraperitoneally (i.p.)) given as twice daily injections at 07:00-07:30 and 19:00-19:30. All animals received a single daily injection of fluoxetine (10 mg/kg in sterile water i.p.) given in the morning. Treatment periods were 0 (control), 3, 7 or 14 days.
For microdialysis animals were anaesthetised with chloral hydrate (500 mg/kg i.p. plus supplementary doses as required). Surgery was undertaken to position a microdialysis probe in the right prefrontal cortex (stereotaxic coordinates: rostral +3.2 mm, lateral 0.5 mm, ventral −4.6 mm from bregma and dura surface). The probe was perfused with artificial cerebrospinal fluid (aCSF) for 3 h until stable basal level of 5-HT is achieved. Samples were collected every 20 minutes and analysed by HPLC with electrochemical detection. The experimental protocol comprised three phases: i) Basal extracellular levels of 5-HT were measured for 60 min.; ii) Fluoxetine (10 μM) was added to the aCSF to block local uptake in order to measure total release rate. Samples were collected for 80 min. and iii) Fluoxetine was injected i.p. (10 mg/kg) to block all uptake sites, including at the autoreceptor, and samples were collected for 120 min. The magnitude of the fall in measured 5-HT levels after this injection was used as a measure of autoreceptor sensitivity.

In the case of `CNCCC(Oc1ccc(C(F)(F)F)cc1)c1ccccc1` (stereo not drawn) [fluoxetine], the “Mean Fall in 5-HT levels” value (3 days pretreatment) is reported as 7.59 fmol, the “Mean Fall in 5-HT levels” value (7 days pretreatment) is reported as 7.37 fmol and the “Mean Fall in 5-HT levels” value (14 days pretreatment) is reported as 4.85 fmol.
